Counter-ions that a name gives are not always drawn.
The compounds below were run against T1, Inward rectifier potassium channel 2 (Mus musculus, UniProt P35561) (assay: inhibitors of Kir2.1 potassium channel – mouse Kir2.1, dose response (AID 2594)).
T1 sequence (P35561 whole entry): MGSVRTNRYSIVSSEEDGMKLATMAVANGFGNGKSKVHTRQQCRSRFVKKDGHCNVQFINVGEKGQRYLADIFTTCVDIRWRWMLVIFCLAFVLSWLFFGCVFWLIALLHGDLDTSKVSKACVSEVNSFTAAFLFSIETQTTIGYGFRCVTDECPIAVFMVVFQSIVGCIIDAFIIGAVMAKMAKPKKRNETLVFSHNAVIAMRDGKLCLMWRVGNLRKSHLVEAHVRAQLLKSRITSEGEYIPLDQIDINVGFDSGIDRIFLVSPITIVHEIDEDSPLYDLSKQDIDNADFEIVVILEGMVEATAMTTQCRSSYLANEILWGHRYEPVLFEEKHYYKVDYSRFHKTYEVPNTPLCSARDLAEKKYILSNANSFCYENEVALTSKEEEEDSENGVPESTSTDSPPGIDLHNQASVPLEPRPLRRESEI
Compound COc1ccc(CNCc2cccc3ccccc23)cc1 has an IC50 of 26.9 µM.
CC(NS(=O)(=O)c1ccc(Br)s1)c1ccccc1 (stereo not given) was tested, and the IC50 was 19.8 µM.
In the case of Cc1ccc(OCC(O)CNCc2ccc(F)cc2)cc1 (stereo not given) [1-[(4-fluorophenyl)methylamino]-3-(4-methylphenoxy)propan-2-ol], the IC50 is reported as 24.6 µM.
In the case of Cc1ccc(Nc2cc(C)nc3c(C)cccc23)cc1 [2,8-dimethyl-N-(4-methylphenyl)quinolin-4-amine], the IC50 is reported as 43.1 µM.
Work on Fc1ccc(N2CCN(Cc3c[nH]c4ccccc34)CC2)cc1 [3-[[4-(4-fluorophenyl)piperazin-1-yl]methyl]-1H-indole] yielded an IC50 of 30.6 µM.
CCn1c(COc2ccccc2)nnc1SCc1ccc(C#N)cc1 [4-[[4-ethyl-5-(phenoxymethyl)-1,2,4-triazol-3-yl]sulfanylmethyl]benzonitrile] was tested, and the IC50 was 48.3 µM.
Cc1ccc(O)c(CNCCNCc2cc(C)ccc2O)c1 [4-methyl-2-[[2-[(5-methyl-2-oxidanyl-phenyl)methylamino]ethylamino]methyl]phenol] gave an IC50 of 21.5 µM.
In the case of COc1ccc(CNC/C=C/c2ccccc2)cc1 [(E)-N-[(4-methoxyphenyl)methyl]-3-phenyl-prop-2-en-1-amine;hydrochloride], the IC50 is reported as 22.3 µM.
Work on Cc1ccc2[nH]c(NCc3ccccc3)nc2c1 [MLS000081058] yielded an IC50 of 33.4 µM.
Work on c1ccc(COc2ccc(OCCCNC3CCCC3)cc2)cc1 [MLS000535503] yielded an IC50 of 33.5 µM.
In the case of CC(C)(C)OC(=O)NCCc1nnc(SCc2ccc(Cl)cc2)o1 [MLS000557943], the IC50 is reported as 15.8 µM.
CSc1ccc(S(=O)(=O)NC(C)c2ccccc2)cc1 (stereo not given) [MLS000693878] gave an IC50 of 43 µM.
CCCN1CCC(NC23CC4CC(CC(C4)C2)C3)CC1 [N-(1-adamantyl)-1-propyl-4-piperidinamine] gave an IC50 of 54.2 µM.
With Clc1ccc(CNC2CCN(Cc3ccccc3)CC2)cc1 [N-[(4-chlorophenyl)methyl]-1-(phenylmethyl)-4-piperidinamine] the IC50 was 37.7 µM.
With COc1ccc(Nc2ccnc3ccccc23)cc1 [SMR000033695] the IC50 was 34 µM.
Work on CCn1c(Sc2ccc(N)cc2Cl)nc2ccccc21 [SMR000078102] yielded an IC50 of 35.6 µM.
O=S(=O)(c1ccc(F)cc1)N1CCCc2ccccc21 [SMR000514216] gave an IC50 of 58.5 µM.
Work on CC(NS(=O)(=O)c1ccc(Br)cc1)c1ccccc1 (stereo not given) [SMR000516693] yielded an IC50 of 25.6 µM.
Compound COc1ccc(CNCCc2ccc3c(c2)OCO3)cc1Br [SMR000555601] has an IC50 of 34.7 µM.
With CC(O)CNCCCOc1cccc(Oc2ccccc2)c1 (stereo not given) [oxalic acid;1-[3-(3-phenoxyphenoxy)propylamino]-2-propanol] the IC50 was 23.6 µM.
